Measured values as given in patent US11485736B2 (KSQ Therapeutics, Inc., priority 2018, dated 2022).
Like-named read-outs stand apart in the source and are kept apart here.

Tests used:
[1] = ADME solubility determination at pH 2.0 and pH 7.4; assay type: physicochemical; details: aqueous buffer, thermodynamic from solid, LC-MS/MS
Procedure, shortened: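 Dried residues of 10 mM DMSO stocks were shaken in PBS pH 7.4 or pH 2.0 for 24 hours at 25° C. and 1,100 rpm. After centrifugation, supernatants were quantified by LC-MS/MS against a standard of known concentration, applying a dilution factor.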

[2] = Liver microsomal stability, human liver microsomes; assay type: in vitro ADME; details: 1 μM compound, NADPH, read-out: t1/2 (min) in HLM
Procedure, shortened: (§1)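 Compound (1 μM final) was incubated with prewarmed human or rat liver microsomes (1 mg/mL in 100 mM phosphate master mix) plus NADPH; aliquots at 0.5–30 minutes were quenched in cold acetonitrile and quantified by LC-MS/MS. Half-life came from the ln(% remaining) versus time slope, converted to CLint (μL/min/mg prot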

[3] = Liver microsomal stability, rat liver microsomes; assay type: in vitro ADME; details: 1 μM compound, NADPH, read-out: t1/2 (min) in RLM
Procedure, shortened: as §1

[4] = PBS pH 2.0, shaken at 25° C. for 24 hours, read-out: Solubility at pH 2.0
[5] = PBS pH 7.4, shaken at 25° C. for 24 hours, read-out: Solubility at pH 7.4

SMILES	solubility at 24 h [1, 4] [µM]	solubility at 24 h [1, 5] [µM]	half-life at 1 μM [2] [min]	half-life at 1 μM [3] [min]
Cc1cc(C(F)(F)F)nn1-c1ccc(Cn2ncc3cnc(-c4cccnc4C#N)nc32)cc1 [Example 49]	< 10	< 10	> 25	> 25
Cc1cc(C(F)(F)F)nn1-c1ccc(Cn2ncc3cnc(-c4ccccc4C(C)C)nc32)cc1 [Example 23]	< 10	< 10	> 25	< 25
CCn1cc(C(F)(F)F)nc1-c1ccc(Cn2ncc3cnc(-c4c(OC)ncnc4OC4CC4)nc32)cc1 [Example 114]	> 10	> 10	< 25	< 25
CCn1cc(C(F)(F)F)nc1-c1ccc([C@H](C)n2ncc3cnc(-c4c(OC)ncnc4C4CCC4)nc32)cc1 (single isomer, unassigned) [Example 99]	> 10	< 10	< 25	< 25
COc1ncnc(C2CC2)c1-c1ncc2cnn(Cc3ccc(-n4nc(C(F)(F)F)cc4OC4CNC4)cc3)c2n1 [Example 200, 1-(4-(5-(azetidin-3-yloxy)-3-(trifluoromethyl)-1H-pyrazol-1-yl)benzyl)-6-(4-cyclopropyl-6-methoxypyrimidin-5-yl)-1H-pyrazolo[3,4-d]pyrimidine]	> 10	> 10	> 25	> 25
COc1ncnc(C2CC2)c1-c1ncc2cnn(Cc3ccc(-c4nc(C(F)(F)F)cn4C4CCC4)cc3)c2n1 [Example 144]	< 10	< 10	> 25	< 25
COc1ncnc(C2CC2)c1-c1ncc2cnn(Cc3ccc(-c4nc(C(F)(F)F)oc4C)cc3)c2n1 [Example 127]	< 10	< 10	> 25	> 25
[2H]C([2H])([2H])C([2H])(n1cc(C(F)(F)F)nc1-c1ccc(Cn2ncc3cnc(-c4c(OC)ncnc4C4CC4)nc32)cc1)C([2H])([2H])[2H] [Example 140]	< 10	< 10	> 25	> 25
CC(C)c1ccccc1-c1ncc2ncn(Cc3ccc(-c4nc(C(F)(F)F)cn4C)cc3)c2n1 [Example 202, 2-(2-Isopropylphenyl)-9-(4-(1-methyl-4-(trifluoromethyl)-1H-imidazol-2-yl)benzyl)-9H-purine]	> 10	< 10	< 25	< 25
COc1ncnc(C2CC2)c1-c1ncc2cnn([C@H](C)c3ccc(-c4nc(C(F)(F)F)cn4C(C)C)cc3)c2n1 [Example 98]	> 10	> 10	> 25	< 25
COc1ncnc(C2CC2)c1-c1ncc2cnn(Cc3ccc(-c4nc(C(F)(F)F)cn4C)cc3)c2n1 [Example 12, 6-(4-cyclopropyl-6-methoxypyrimidin-5-yl)-1-(4-(1-methyl-4-(trifluoromethyl)-1H-imidazol-2-yl)benzyl)-1H-pyrazolo[3,4-d]pyrimidine]	> 10	> 10	< 25	> 25
COc1ncnc(C2CC2)c1-c1ncc2cnn(Cc3ccc(-n4nc(C(F)(F)F)cc4OC)nc3)c2n1 [Example 79]	< 10	< 10	> 25	> 25
COc1ncnc(C2CC2)c1-c1ncc2cnn(C(C)c3ccc(-c4nc(C(F)(F)F)cn4CCF)cc3)c2n1 (stereo not drawn) [Example 141]	> 10	< 10	> 25	> 25
CCc1nc2cnc(-c3c(OC)ncnc3C3CC3)nc2n1Cc1ccc(-n2nc(C(F)(F)F)cc2C)cc1 [Example 209, 2-(4-cyclopropyl-6-methoxypyrimidin-5-yl)-8-ethyl-9-(4-(5-methyl-3-(trifluoromethyl)-1H-pyrazol-1-yl)benzyl)-9H-purine]	> 10	> 10	< 25	> 25
CC(C)c1ccccc1-c1ncc2cnn(Cc3ccc(-c4nc(C(F)(F)F)cn4C4CN(C)C4)cc3)c2n1 [Example 152, 6-(2-Isopropylphenyl)-1-(4-(1-(1-methylazetidin-3-yl)-4-(trifluoromethyl)-1H-imidazol-2-yl)benzyl)-1H-pyrazolo[3,4-d]pyrimidine]	> 10	> 10	< 25	< 25
COCCOc1ncnc(C)c1-c1ncc2cnn(Cc3ccc(-n4nc(C(F)(F)F)cc4C)cc3)c2n1 [Example 47]	> 10	> 10	< 25	< 25
CCn1cc(C(F)(F)F)nc1-c1ccc(Cn2nc(OC3CCC3)c3cnc(-c4c(OC)ncnc4C4CC4)nc32)cc1 [Example 184]	< 10	< 10	< 25	< 25
COc1ncnc(C2CC2)c1-c1ncc2cnn(Cc3ccc(-n4nc(C(F)(F)F)cc4N(C)C)cc3)c2n1 [Example 121]	< 10	< 10	< 25	< 25
CCn1cc(C(F)(F)F)nc1-c1ccc(Cn2ncc3cnc(-c4c(OC)cnn4C4CCC4)nc32)cc1 [Example 84]	< 10	< 10	< 25	< 25

The remaining lines, values ahead:

solubility at 24 h [1, 4] [µM]	solubility at 24 h [1, 5] [µM]	half-life at 1 μM [2] [min]	half-life at 1 μM [3] [min]	SMILES
> 10	> 10	> 25	> 25	COc1ncnc(C2(C)CC2)c1-c1ncc2cnn(Cc3ccc(-c4nc(C(F)(F)F)cn4C(C)C)cc3)c2n1 [Example 107]
> 10	> 10	< 25	< 25	COc1cn(C(C)C)c(-c2ccc(Cn3ncc4cnc(-c5c(OC)ncnc5C5CC5)nc43)cc2)n1 [Example 74]
> 10	< 10	> 25	> 25	COc1ncnc(C2CC2)c1-c1ncc2cnn(Cc3ccc(-c4nc5c(F)cccc5n4C)cc3)c2n1 [Example 131]
> 10	< 10	> 25	< 25	Cc1cc(C(F)(F)F)nn1-c1ccc(Cn2ncc3cnc(-c4cccnc4C(C)C)nc32)cc1 [Example 26]
< 10	< 10	< 25	< 25	CCn1cc(C#N)nc1-c1ccc(Cn2ncc3cnc(-c4c(OC)ncnc4C4CC4)nc32)cc1 [Example 148, 2-(4-((6-(4-cyclopropyl-6-methoxypyrimidin-5-yl)-1H-pyrazolo[3,4-d]pyrimidin-1-yl)methyl)phenyl)-1-ethyl-1H-imidazole-4-carbonitrile]
> 10	> 10	< 25	< 25	COc1ncnc(C2CCC2)c1-c1ncc2cnn(Cc3ccc(-c4nc(C(F)(F)F)cn4C)cc3)c2n1 [Example 15]
< 10	< 10	> 25	> 25	COc1ncnc(C2CC2)c1-c1ncc2nc(C(C)C)n(Cc3ccc(-c4nc(C(F)(F)F)cn4C(C)C)cc3)c2n1 [Example 208]
< 10	< 10	> 25	< 25	COc1ncnc(C2CC2)c1-c1ncc2cnn(Cc3ccc(-n4nc(C#N)cc4OC)cc3)c2n1 [Example 70]
> 10	< 10	> 25	< 25	COc1ncnc(C2CC2)c1-c1ncc2cnn(Cc3ccc(-c4nc(C(F)(F)F)cn4CC(C)F)cc3)c2n1 (stereo not drawn) [Example 142]
< 10	< 10	> 25	> 25	COc1ncnc(C2CC2)c1-c1ncc2cnn(Cc3ccc(-c4nc(C(F)(F)F)c[nH]4)cc3)c2n1 [Example 134, 6-(4-cyclopropyl-6-methoxypyrimidin-5-yl)-1-(4-(4-(trifluoromethyl)-1H-imidazol-2-yl)benzyl)-1H-pyrazolo[3,4-d]pyrimidine]
< 10	< 10	> 25	> 25	COc1ncnc(C2CC2)c1-c1ncc2cnn(Cc3ccc(-c4nc(C(F)(F)F)c(Br)n4C)cc3)c2n1 [Example 163]
> 10	< 10	< 25	< 25	CCn1cc(C(F)(F)F)nc1-c1ccc(Cn2ncc3cnc(-c4c(OC)ncnc4C4CN(C)C4)nc32)cc1 [Example 101]
< 10	< 10	> 25	> 25	COc1ncnc(C2CC2)c1-c1ncc2c(OC)nn([C@@H](C)c3ccc(-c4nc(C(F)(F)F)cn4CCF)cc3)c2n1 [Example 178]
> 10	< 10	< 25	< 25	COc1ncnc(C2CC2(C)C)c1-c1ncc2cnn(Cc3ccc(-c4nc(C(F)(F)F)cn4C(C)C)cc3)c2n1 (stereo not drawn) [Example 108]
